Read-outs that look alike come from different tables or passages of the source.
How the values were obtained:
[1] = biological target: T1, human TRPV1 (Homo sapiens, UniProt Q8NER1); experiment: intracellular calcium in HEK-293 cells overexpressing human TRPV1; assay type: cell-based; conditions: 4 μM ionomycin as maximum reference
T1 construct: expressed in transfected cells; host or cells: HEK-293

[2] = test system: Sprague Dawley rats; experiment: in vivo test of induced urinary incontinence (partial urethral obstruction); design: species or system rat; conditions: operated rats; for N^o of minctions per hour: 8 weeks after urethral obstruction, instilled in the bladder in ethanol at 50 nM for 30 min; for number of minctions per hour, result in words: instilled in the bladder at 50 nM for 30 min
Procedure: The activity of the compound of example 2 was also evaluated in rats through the in vivo test of induced urinary incontinence.
Sprague Dawley rats (250±10 g) were anaesthetized with chloral hydrate. The urinary bladder was opened through an incision along the abdomen median line, and the adipose tissue surrounding the urethra and ureters was removed. The proximal urethra was then tied up with non-absorbable surgery thread to create partial urethral obstruction.
On the treatment day, the compound of example 2, the compound prepared according to Appendino et al. and resiniferotoxin as the reference standard were solubilised in ethanol and instilled in the bladder at the concentration of 50 nM. The instillation lasted 30 min: during this period the infusion pump for the saline was turned off. After incubation, the bladder was emptied of any medicament solution, then the infusion pump was turned on again.

[3] = in DMSO, read-out: pEC50 DMSO (pEC50 values for TPVR1) (converted)
[4] = in methanol, read-out: pEC50 methanol (pEC50 values for TPVR1) (converted)

T1 sequence (Q8NER1 whole entry): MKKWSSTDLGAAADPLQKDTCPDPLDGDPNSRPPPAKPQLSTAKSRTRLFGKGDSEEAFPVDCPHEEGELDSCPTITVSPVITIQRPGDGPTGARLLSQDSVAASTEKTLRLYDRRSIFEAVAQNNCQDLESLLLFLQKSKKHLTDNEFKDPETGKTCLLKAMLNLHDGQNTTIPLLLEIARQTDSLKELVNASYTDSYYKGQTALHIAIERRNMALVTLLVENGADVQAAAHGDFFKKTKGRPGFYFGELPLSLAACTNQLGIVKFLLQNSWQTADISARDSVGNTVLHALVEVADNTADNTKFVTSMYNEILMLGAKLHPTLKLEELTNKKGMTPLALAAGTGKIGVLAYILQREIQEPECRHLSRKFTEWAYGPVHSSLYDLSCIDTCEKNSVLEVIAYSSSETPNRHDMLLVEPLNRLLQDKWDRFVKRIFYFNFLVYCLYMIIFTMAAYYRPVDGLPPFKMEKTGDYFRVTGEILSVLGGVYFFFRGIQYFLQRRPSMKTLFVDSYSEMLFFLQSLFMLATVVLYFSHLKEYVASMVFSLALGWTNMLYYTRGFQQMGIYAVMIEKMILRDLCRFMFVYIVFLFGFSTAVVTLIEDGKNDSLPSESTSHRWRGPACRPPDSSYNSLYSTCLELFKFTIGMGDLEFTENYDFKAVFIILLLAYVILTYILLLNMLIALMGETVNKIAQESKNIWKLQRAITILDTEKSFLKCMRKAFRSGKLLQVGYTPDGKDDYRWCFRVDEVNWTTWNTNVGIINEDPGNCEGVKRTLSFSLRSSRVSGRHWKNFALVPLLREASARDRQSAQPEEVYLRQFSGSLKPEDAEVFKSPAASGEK

| SMILES | EC50 [1, 3] | N^o of minctions per hour [2] | number of minctions per hour, result in words [2] | EC50 [1, 4] | also measured |
| --- | --- | --- | --- | --- | --- |
| CCCCCC[C@H](C/C=C\CCCCCCCC(=O)NCc1ccc(O)c(OC)c1)OC(C)=O | 0.501 nM |  |  |  | pEC50 methanol (pEC50 values for TPVR1) ([1]; in methanol): 9.40 ± 0.18 |
| CCCCCC[C@H](C/C=C\CCCCCCCC(=O)NCc1ccc(O)c(OC)c1)OC(=O)Cc1ccccc1 [Compound of example 2, 12-Phenylacetyl Rinvanil] |  | 19 ± 2 per hour | remained similar to that of non-operated animals |  | EC50 ([1]; pEC50 DMSO (pEC50 values for TPVR1), in DMSO): 0.102 nM; EC50 ([1]; pEC50 methanol (pEC50 values for TPVR1), in methanol): 0.0661 nM |
| CCCCCC[C@H](C/C=C\CCCCCCCC(=O)NCc1ccc(O)c(OC)c1)OC(=O)c1ccccc1 [Compound of example 9, 12-Benzoyl Rinvanil] | 0.129 nM |  |  | 0.288 nM |  |
| CCCCCC[C@H](CC1CC1CCCCCCCC(=O)NCc1ccc(O)c(OC)c1)OC(=O)Cc1ccccc1 (some centres unmarked) [Compound of example 12, 9,10-Methylen-12-Phenylacetyl Rinvanil I] | 0.12 nM |  |  | 0.158 nM |  |
| CCCCCC[C@H](CC1OC1CCCCCCCC(=O)NCc1ccc(O)c(OC)c1)OC(=O)Cc1ccccc1 (some centres unmarked) [Compound of example 15, 9,10-Epoxy-12-Phenylacetyl Rinvanil] | 5.37 nM |  |  | 4.07 nM |  |
| C=C(C)[C@]12C[C@@H](C)[C@@]34O[C@](Cc5ccccc5)(O[C@@H]1[C@@H]3C=C(COC(=O)Cc1ccc(O)c(OC)c1)C[C@]1(O)C(=O)C(C)=C[C@@H]41)O2 [Resiniferotoxin, resiniferotoxin, reference compound] |  | 17 ± 2 per hour | remained similar to that of non-operated animals |  |  |
